Results published in patent US12496355B2, “Method for treating a cancer and/or cancer metastasis” (NANO TARGETING & THERAPY BIOPHARMA INC., priority 2022, dated 2025).
Entries after “also recorded” stand apart in the source; their conditions may differ.

Tests used:
[1] = tested on: tumor angiogenesis on chicken embryo chorioallantoic membrane; experiment: Chorioallantoic membrane (CAM) tumor model for angiogenesis; type: in vivo; settings: administered on day 12, observed on days 14 and 16
Method: To evaluate the effect of MSNs on tumor angiogenesis, chicken embryo chorioallantoic membrane (CAM) tumor model was used. The fertilized eggs were incubated in the incubator for 10 days, then a small window was opened in the eggshell and the cancer cells were implanted on the CAM membrane near the aorta. MSN or Doxorubicin (DOX) was administered on day 12 when the tumor was formed and the angiogenesis near the tumor was observed on days 14 and 16.

[2] = tested on: luciferase-expressing HCT-116 cells; experiment: Orthotopic colorectal cancer metastasis model, cells injected into cecum wall; settings: 40 mg/kg twice per week, 8 administrations
Text: 2×10^6 luciferase-expressing HCT-116 cells were directly injected into the wall of the cecum with surgery to establish the orthotopic colorectal cancer metastasis model, this model spontaneously produces highly metastatic tumors in adjacent intestinal tissues, peritoneum, and distance metastasis (spleen, kidney, liver, and diaphragm). […] The tumor growth and metastasis were observed by the IVIS system once a week and body weight was observed over the study period. To assess overall survival, animals were monitored up to the point of spontaneous death or approaching moribund status.

SMILES | blood vessels near the tumor (angiogenesis) [1] | primary tumor growth and metastases (IVIS bioluminescence) [2]
COc1cccc2c1C(=O)c1c(O)c3c(c(O)c1C2=O)C[C@@](O)(C(=O)CO)C[C@@H]3O[C@H]1C[C@H](N)[C@H](O)[C@H](C)O1 [DOX, Doxorubicin] | blood vessels exhibited disintegration and decreased density | –
CCc1c2c(nc3ccc(OC(=O)N4CCC(N5CCCCC5)CC4)cc13)-c1cc3c(c(=O)n1C2)COC(=O)[C@]3(O)CC [IRI, irinotecan] | – | slower tumor growth rate compared to the control group; also recorded: inefficient inhibition of tumor growth and metastases
